Source: patent US10392348B2, “2-oxo-3,4-dihydroquinoline compounds as plant growth regulators” (Syngenta Participations AG, priority 2015, dated 2019)
Read-outs that look alike come from different tables or passages of the source.

Test system: soybean plants (variety S20-G7)
Assay: Reduced plant water use in soybean (foliar spray, repeated weighing of pots)
Format: in vivo
Settings: Glycine max, foliar, Table B1, sprayed at 500 μM, vs negative control
Procedure: Compounds were tested for their effect on reducing plant water use as follows. Each compound was dissolved in a blank emulsifiable concentrate (EC) formulation that was then diluted to the desired concentration with water containing additional surfactant (EXTRAVON 1 g/20 L). The compounds were applied by foliar spray to 12 day old soybean plants (variety S20-G7) grown in controlled environment plant growth chambers. Plant water use during the day was assessed by repeated weighing of the pots in which the plants were grown before and after application of the compounds at the indicated times (expressed in days after application (DAA)). The water use data before application was used to correct any differences in water use arising due to non-treatment effects (e.g. due to differences in plant size). The untransformed water use values were subjected to an analysis of covariance, fitting the effect of treatment and using the baseline water use 1 day before application as a covariate.
The results are expressed compared to negative control treatment (diluted EC formulation without active ingredient but with EXTRAVON 1 g/20 L).
Application of the chemicals (0 DAA) takes place approximately between 08:00 and 09:30 a.m. WU is measured within day time (chamber light is on 06:00 to 20:00) at these timepoints: 0 DAA a.m. (10:30-12:50), 0 DAA p.m. (14:00-19:50), 1 DAA a.m. (7:30-12:50), 1 DAA p.m. (14:00-19:50), 2 DAA a.m. (07:30-12:50) and 2 DAA p.m. (14:00-19:50). The cumulative total WU (0-2.5 DAA) is calculated by summing the WU data mentioned above.

[1] = 0 h, 0 DAA a.m. (10:30-12:50), read-out: % WU 0 DAA AM
[2] = 24 h, 1 DAA a.m. (7:30-12:50), read-out: % WU 1DAA AM
[3] = 24 h, 1 DAA p.m. (14:00-19:50), read-out: % WU 1DAA PM
[4] = 48 h, 2 DAA a.m. (07:30-12:50), read-out: % WU 2 DAA AM
[5] = 48 h, 2 DAA p.m. (14:00-19:50), read-out: % WU 2 DAA PM
[6] = 60 h, cumulative total WU (0-2.5 DAA), read-out: % WU Total 0 to 2.5 DAA

Compound	change in vivo at 500 µM [1]	change in vivo at 500 µM [2]	change in vivo at 500 µM [3]	change in vivo at 500 µM [4]	change in vivo at 500 µM [5]	change in vivo at 500 µM [6]
C=CCN1C(=O)CCc2cc(CNS(=O)(=O)c3ccccc3)ccc21 [Compound 5.001, N-[(1-allyl-2-oxo-3,4-dihydroquinolin-6-yl)methyl]benzenesulfonamide]	-15.1%	-18.7%	-17.4%	-16.5%	-15.6%	-17.1%
C=CCN1C(=O)CCc2cc(CNS(=O)(=O)c3ccc(F)cc3F)ccc21 [Compound 5.006, N-[(1-allyl-2-oxo-3,4-dihydroquinolin-6-yl)methyl]-2,4-difluoro-benzenesulfonamide]	-13.6%	-12.5%	-11.5%	-9.7%	-9.9%	-11.4%
CCCn1c(=O)ccc2cc(CNS(=O)(=O)c3ccc(F)cc3F)ccc21 [Compound 7.006, 2,4-difluoro-N-[(2-oxo-1-propyl-6-quinolyl)methyl]benzenesulfonamide]	-14.6%	-6.7%	-4.2%	-4.2%	0%	-6.1%
CCCn1c(=O)ccc2cc(CNS(=O)(=O)c3ccc(F)cc3)ccc21 [Compound 7.009, 4-fluoro-N-[(2-oxo-1-propyl-6-quinolyl)methyl]benzenesulfonamide]	-8.1%	-3.6%	-3.5%	-4%	-1.7%	-4.1%
O=C1CCc2cc(CNS(=O)(=O)c3ccccc3)ccc2N1CC1CC1 [Compound 10.001, N-[[1-(cyclopropylmethyl)-2-oxo-3,4-dihydroquinolin-6-yl]methyl]benzenesulfonamide]	-25.2%	-23.8%	-22.7%	-14.9%	-14.7%	-20.8%
O=C1CCc2cc(CNS(=O)(=O)c3ccc(F)cc3F)ccc2N1CC1CC1 [Compound 10.006, N-[[1-(cyclopropylmethyl)-2-oxo-3,4-dihydroquinolin-6-yl]methyl]-2,4-difluoro-benzenesulfonamide]	-22.4%	-18.5%	-18.2%	-16.9%	-17.8%	-18.6%
O=C1CCc2cc(CNS(=O)(=O)c3ccccc3)ccc2N1CC(F)(F)F [Compound 11.001, N-[[2-oxo-1-(2,2,2-trifluoroethyl)-3,4-dihydroquinolin-6-yl]methyl]benzenesulfonamide]	-20.8%	-26.2%	-27.6%	-26.9%	-26.9%	-26.1%
O=C1CCc2cc(CNS(=O)(=O)c3ccc(F)cc3F)ccc2N1CC(F)(F)F [Compound 11.006, 2,4-difluoro-N-[[2-oxo-1-(2,2,2-trifluoroethyl)-3,4-dihydroquinolin-6-yl]methyl]benzenesulfonamide]	-13%	-15.3%	-15.7%	-16.4%	-16.5%	-15.8%
COCCN1C(=O)CCc2cc(CNS(=O)(=O)c3ccccc3)ccc21 [Compound 13.001, N-[[1-(2-methoxyethyl)-2-oxo-3,4-dihydroquinolin-6-yl]methyl]benzenesulfonamide]	-15.1%	-11%	-11%	-8.9%	-9.2%	-11.1%
COCCN1C(=O)CCc2cc(CNS(=O)(=O)c3ccc(F)cc3F)ccc21 [Compound 13.006, 2,4-difluoro-N-[[1-(2-methoxyethyl)-2-oxo-3,4-dihydroquinolin-6-yl]methyl]benzenesulfonamide]	-9.8%	-9.3%	-10.1%	-9.6%	-10.3%	-10.1%
CCN1C(=O)CC(C)c2cc(CNS(=O)(=O)c3ccccc3)cc(C)c21 (stereo not drawn) [Compound 16.001, N-[(1-ethyl-4,8-dimethyl-2-oxo-3,4-dihydroquinolin-6-yl)methyl]benzenesulfonamide]	-39%	-49%	-48.1%	-45.7%	-44.5%	-46%
CCCN1C(=O)CCc2cc(CNS(=O)(=O)c3ccccc3)cc(F)c21 [Compound 17.001, N-[(8-fluoro-2-oxo-1-propyl-3,4-dihydroquinolin-6-yl)methyl]benzenesulfonamide]	-41.6%	-38%	-36.3%	-27.1%	-26.3%	-34.7%
CCN1C(=O)CC(C)c2cc(CNS(=O)(=O)c3ccccc3)cc(F)c21 (stereo not drawn) [Compound 22.001, N-[(1-ethyl-8-fluoro-4-methyl-2-oxo-3,4-dihydroquinolin-6-yl)methyl]benzenesulfonamide]	-46.1%	-55.8%	-53%	-55.1%	-50.1%	-52.1%
CC1CC(=O)N(CC(F)(F)F)c2ccc(CNS(=O)(=O)c3ccccc3)cc21 (stereo not drawn) [Compound 23.001, N-[[4-methyl-2-oxo-1-(2,2,2-trifluoroethyl)-3,4-dihydroquinolin-6-yl]methyl]benzenesulfonamide]	-31.3%	-39.7%	-40.8%	-35.9%	-37.3%	-37.7%
CC1CC(=O)N(CC2CC2)c2ccc(CNS(=O)(=O)c3ccccc3)cc21 (stereo not drawn) [Compound 24.001, N-[[1-(cyclopropylmethyl)-4-methyl-2-oxo-3,4-dihydroquinolin-6-yl]methyl]benzenesulfonamide]	-35.3%	-42.8%	-42.8%	-39.9%	-38.3%	-40.6%
C=CCN1C(=O)CC(C)c2cc(CNS(=O)(=O)c3ccccc3)ccc21 (stereo not drawn) [Compound 25.001, N-[(1-allyl-4-methyl-2-oxo-3,4-dihydroquinolin-6-yl)methyl]benzenesulfonamide]	-28.2%	-41%	-39.6%	-38.1%	-36.7%	-37.9%
